Test results: ChEMBL document CHEMBL1129556, “Design, synthesis, and evaluation of latent alkylating agents activated by glutathione S-transferase” (J Med Chem, 1996)

Tests used:
Homo sapiens [1] = species on record: Homo sapiens; experiment: Inhibitory activity (treatment time 120 min) against MCF-7 neo cell line; type: functional; conditions: MCF7, 2 h
Homo sapiens [2] = species on record: Homo sapiens; experiment: Inhibitory activity (treatment time 120 min) against MCF-7 pi cell line; type: functional; conditions: MCF7, 2 h

SMILES	IC50 (Homo sapiens [1]) [µM]	IC50 (Homo sapiens [2]) [µM]
NC(CCC(=O)NC(CS(=O)(=O)C(COP(=O)(N(CCCl)CCCl)N(CCCl)CCCl)c1ccccc1)C(=O)NCC(=O)O)C(=O)O (stereo not given)	21.3	13.5
CCOC(=O)CNC(=O)C(CS(=O)(=O)CCOC(=O)N(CCCl)CCCl)NC(=O)CCC(N)C(=O)OCC (stereo not given)	102	68.8
NC(CCC(=O)NC(CS(=O)(=O)CCOP(=O)(N(CCBr)CCBr)N(CCBr)CCBr)C(=O)NC(C(=O)O)c1ccccc1)C(=O)O (stereo not given)	16.1	11.4
NC(CCC(=O)NC(CS(=O)(=O)CCOP(=O)(N(CCCl)CCCl)N(CCCl)CCCl)C(=O)NC(C(=O)O)c1ccccc1)C(=O)O (stereo not given)	39.9	14.4
NC(CCC(=O)NC(CS(=O)(=O)CCOC(=O)N(CCCl)CCCl)C(=O)NCC(=O)O)C(=O)O (stereo not given)	133	85.8
